{"source": "patent US20090304661A1", "about": "“Method And Composition For Proctecting Neuronal Tissue From Damage Induced By Elevated Glutamate Levels” (Yeda Research And Development Co. Ltd. at the Weizmann …, priority 2006, published 2009)", "key": {"[1]": {"molecular_target": "E. coli GOT (GenBank Accession No. D90731.1) (Escherichia coli, UniProt P00509)", "sequence (P00509 whole entry)": "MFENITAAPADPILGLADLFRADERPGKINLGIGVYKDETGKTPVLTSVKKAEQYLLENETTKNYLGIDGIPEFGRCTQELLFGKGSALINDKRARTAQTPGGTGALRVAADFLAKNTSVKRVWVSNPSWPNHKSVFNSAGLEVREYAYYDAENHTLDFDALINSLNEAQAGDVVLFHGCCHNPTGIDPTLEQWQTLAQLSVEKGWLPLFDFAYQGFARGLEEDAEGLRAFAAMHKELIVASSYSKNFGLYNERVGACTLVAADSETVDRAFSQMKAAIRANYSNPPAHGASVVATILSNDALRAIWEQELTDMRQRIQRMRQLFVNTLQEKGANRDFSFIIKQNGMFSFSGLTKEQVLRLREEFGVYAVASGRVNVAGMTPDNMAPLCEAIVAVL", "conditions": "cited from earlier work"}, "[2]": {"system": "Glu in rat brain striatum", "assay": "Dual-probe microdialysis of Glu in rat brain striatum", "format": "in vivo", "quoted_text": "Glu (1M) was continuously perfused at a rate of 2 μl/min from the delivery probe while perfusing artificial CSF at the same rate of 2 μl/min through the recovery probe for the entire duration of the experiments. […] Microdialysis of 1M Glu along with an intravenous Glu injection performed at t=100 min for 30 min (30 μmoles/min/100 g).\nArtificial CSF was perfused at a rate of 2 μl/min through the two probes for a duration of 60 min. A 1 M solution of glutamate was then perfused through the delivery probe, at a rate of 2 μl/min for the entire duration of the experiment while perfusing artificial CSF at the same rate of 2 μl/min through a recovery probe, located at 1 mm from the delivery probe. Aliqouots of 40 μl were collected from the recovery probe every 20 min. The recovered Glu was measured using a spectrofluorometric assay (see below).\nA 20 μl aliquot from microdialysate was added to 480 μl HG buffer containing 15 U of Glu dehydrogenase in 0.2 mM NAD, 0.3M glycine, 0.25 M hydrazine hydrate adjusted to pH 8.6 with 1N H2SO4. […] A Glu standard curve was established with concentrations ranging from 0-6 μM. All determinations were done at least in duplicates. The results are expressed as mean.+−SD.\nThe dual-probe brain microdialysis was used and perfused through the delivery probe inserted in the striatum of anesthetized rats a Glu solution while simultaneously perfusing artificial CSF through a recovery probe, located at 1 mm distance."}, "[3]": {"system": "traumatic brain injury (TBI)", "assay": "Neurological severity score (NSS) after traumatic brain injury", "format": "in vivo, rat", "conditions": "for spontaneous partial recovery of rats submitted to TBI: summary statement", "quoted_text": "FIGS. 3A-C are graphs showing the effects of stress on the spontaneous recovery from traumatic brain injury. FIG. 3A illustrates TBI protocol and times of neurological severity score (NSS) assessment and removal of blood samples (asterisks) FIG. 4B is a histogram showing the effects of propranolol (10 mg/kg i.p) on the spontaneous recovery of rats submitted to TBI. Propranolol was injected 60 min before the infliction of TBI. The neurological severity scores were measured at 1 and 24 hours following TBI. The scores shown on the ordinate correspond to NSS averages+/−standard error of the mean. Control (n=33); propranolol (n=8). […] Propranolol was injected at a dose of 10 mg/kg i.p. 60 min before the infliction of TBI.\nAnimal anesthesia and well being—Experiments were conducted according to the recommendations of the Declarations of Helsinki and Tokyo and to the Guidelines for the Use of Experimental Animals of the European Community. The experiments were approved by the Animal Care Committees of Ben-Gurion University of the Negev and of the Weizmann Institute. Spontaneously breathing male Sprague Dawley rats weighing 200-300 g were anesthetized with a mixture of isoflurane (initial inspired concentration 2%) in 100% oxygen (1l/min). The rectal temperature was maintained at 37° C. using a heating pad and anesthesia was considered as sufficient for surgery when tail reflex was abolished. Catherization of the tail vein was carried out with a BD Neoflon 24 g catheter for allowing fluid infusion. Catherization of the tail artery was performed to allow blood sampling and determination of blood pressure and heart rate."}, "blood Glu levels [4]": {"system": "blood Glu levels", "assay": "Blood Glu levels following traumatic brain injury", "format": "in vivo, rat", "procedure": "FIGS. 3A-C are graphs showing the effects of stress on the spontaneous recovery from traumatic brain injury. FIG. 3A illustrates TBI protocol and times of neurological severity score (NSS) assessment and removal of blood samples (asterisks) […] is a histogram showing the effects of propranolol (10 mg/kg i.p) on the spontaneous recovery of rats submitted to TBI. Propranolol was injected 60 min before the infliction of TBI. The neurological severity scores were measured at 1 and 24 hours following TBI. The scores shown on the ordinate correspond to NSS averages+/−standard error of the mean. Control (n=33); propranolol (n=8). Bonferroni's multiple comparison tests: saline 1 h vs saline 24 h p<0.001; saline 1 h vs propranolol pretreatment p>0.05; saline 1 h vs propranolol post-TBI p<0.001. FIG. 3C is a graph showing the effects of propranolol on the blood Glu (rectangles) and glucose (triangles) levels of rats submitted to TBI (n=8). Propranolol was injected at a dose of 10 mg/kg i.p. 60 min before the infliction of TBI. Glu and glucose levels were measured at 1, 60, 120 and 150 min following TBI. Glu levels were normalized to the value at t=1 min.;\nFIGS. 4A-C are graphs depicting the effects of a blood Glu scavenger and of Glu on the recovery from TBI. Rats were injected intravenously for a total duration of 30 min (as in FIG. 3A) either with saline (30 μl/min/100 g), OxAc (30 μmoles/min/100 g) or OxAc+Glu (30 μmoles/min/100 g each). Twenty four and forty eight hours later, rats were submitted to various tests to establish the NSS. The scores shown above each column correspond to NSS averages with bars indicating the standard error of the mean. FIG. 4A—The groups from left to right are as follows: control saline (n=33) at 1 hour and 24 h; OxAc (n=32); Glu (n=32); OxAc+Glu (n=17) at 24 h and 48 h; One way ANOVA and Bonferroni multiple comparison tests: At 24 h: saline versus OxAc: p<0.05; saline versus Glu: p<0.01; Glu versus OxAc: p<0.001; saline versus OxAc+Glu: p>0.05. […] Glu levels are expressed as the percent of the basal Glu levels measured before TBI. […] Paired t test: 0 versus 60 min saline p=5.10^−4; 0 versus 60 min OxAc p=0.10^−4; 60 min versus 75 min saline: p=0.59; 60 min versus 75 min OxAc: p=3.10^−3; 75 min versus 90 min saline: p=0.89; 75 min versus 90 min OxAc: p=2.10^−4; C: Time course of the recovery from TBI in saline (n=7) and OxAc-treated (n=7) rats as monitored by NSS values presented here as mean±standard deviation. […]\nGlu spectrofluorometric assay—Glu concentration was measured using the fluorometric method of Graham and Aprison. […] After incubation for 30-45 min at room temperature, the fluorescence was measured at 460 nm with excitation at 350 nm. […] The results are expressed as mean.+−SD. […]"}, "[5]": {"assay": "Blood osmolality and Na content before and after treatment", "format": "in vivo, rat", "conditions": "OxAc group", "procedure": "This beneficial effect was not observed in the other groups for which the treatment includes the intravenous administration of Glu (data not shown). Since OxAc could act on brain edema as an osmotic agent, both the blood osmolality and Na content were measured before and after the 30 min-long treatments with OxAc or saline. There was no change in the saline group (303±3.5 mOsm (pre-treatment) vs 299±3 mOsm (post-treatment); Na: 140±1 meq/l vs 141±0.8 meq/l) but a very significant increase in the OxAc-group: (301±5 mOsm vs 338±8 mOsm; Na: 139±1 meq/l vs 164±3.4 meq/l). The hypernatriema and hyperosmolarity in the OxAc-treated rats can be accounted by the fact that OxAc is administered together with 2 Na equivalents. To determine that the NSS improvement and edema reduction in the OxAc-treated rats were not due to an osmotic “therapy”, rats were submitted after TBI to a hypertonic (3% NaCl) saline treatment. As the respective NSS values obtained at 60 min and 24 h post TBI were 15.6±3.6 and 12.4±5.3 (n=7; p=0.16), it was concluded that the beneficial effects of OxAc are not the result of an osmotic therapy."}, "blood Glu levels [6]": {"system": "blood Glu levels", "assay": "Blood Glu levels in rats after stress hormones, agonists and antagonists", "format": "in vivo, rat", "conditions": "for effect on blood Glu levels: cortisol 25 mg/kg intraperitoneally, noradrenaline intravenously 30 min at 2 μg/100 g/min", "procedure": "FIGS. 2A-B are line graphs showing the effects of stress hormones and stress on blood glutamate and glucose levels. A: Cortisol (25 mg/kg) was injected intraperitoneally (triangles). Noradrenaline was infused intravenously for 30 min at 2 μg/100 g/min and 1 ml/100 g (rectangles). Adrenaline was infused intravenously for 30 min at […] and 1 ml/100 g (diamonds). The data presented are normalized to the respective basal blood values and shown as mean±standard deviation (n=3). B: Effects of an intracranial insertion of a microdialysis probe (without any fluid perfusion) on blood Glu (diamonds) and glucose (rectangles) levels. The data presented are normalized to the respective basal blood values and shown as mean±standard deviation (n=4);\nThe rats NSS were measured after 24 and 48 h The results are presented as mean±standard deviation; and\nFIG. 8 is a graph showing the effect of an alpha 1 agonist, phenylephrine on blood Glu levels. Phenylephrine was infused intravenously for 30 min into rats (n=4) at a rate 0.25 mg/0.5 ml/100 g/30 min and the levels of blood Glu were determined at time=0 and every subsequent 30 min until 120 min. The results are presented as mean±standard deviation.\nGlu spectrofluorometric assay—Glu concentration was measured using the fluorometric method of Graham and Aprison. A 20 μl aliquot from microdialysate was added to 480 μl HG buffer containing 15 U of Glu dehydrogenase in 0.2 mM NAD, 0.3M glycine, 0.25 M hydrazine hydrate adjusted to pH 8.6 with 1N H2SO4. After incubation for 30-45 min at room temperature, the fluorescence was measured at 460 nm with excitation at 350 nm. A Glu standard curve was established with concentrations ranging from 0-6 μM. All determinations were done at least in duplicates. The results are expressed as mean.+−SD.\nDetermination of Blood/plasma Glu—Whole blood (200 μl aliquot) were deproteinized by adding an equal volume of ice-cold 1 M perchloric acid (PCA) and then centrifuging at 10000×g for 10 min at 4° C. The pellet was discarded and supernatant collected, adjusted to pH 7.2 with 2M K2CO3 and, if needed, stored at −80° C. for later analysis using the above-described assay.\nThe rats NSS were measured after 24 and 48 h.\nPhenylephrine was infused intravenously for 30 min into rats (n=4) at a rate 0.25 mg/0.5 ml/100 g/30 min and the levels of blood Glu were determined at time=0 and every subsequent 30 min until 120 min."}, "blood glucose levels": {"system": "blood glucose levels", "assay": "Blood glucose levels following traumatic brain injury", "format": "in vivo, rat", "conditions": "propranolol 10 mg/kg i.p. 60 min before TBI", "procedure": "FIGS. 3A-C are graphs showing the effects of stress on the spontaneous recovery from traumatic brain injury. FIG. 3A illustrates TBI protocol and times of neurological severity score (NSS) assessment and removal of blood samples (asterisks) […] is a histogram showing the effects of propranolol (10 mg/kg i.p) on the spontaneous recovery of rats submitted to TBI. Propranolol was injected 60 min before the infliction of TBI. The neurological severity scores were measured at 1 and 24 hours following TBI. The scores shown on the ordinate correspond to NSS averages+/−standard error of the mean. Control (n=33); propranolol (n=8). […] Glu and glucose levels were measured at 1, 60, 120 and 150 min following TBI. […]\nAnimal anesthesia and well being—Experiments were conducted according to the recommendations of the Declarations of Helsinki and Tokyo and to the Guidelines for the Use of Experimental Animals of the European Community. […] Blood samples were analyzed for pH, pO2, pCO2, HCO3^−3. Glucose levels were measured with Accu-Chek sensor comfort. […] Following TBI, all rats were laid on their left side in order to recover from anesthesia and to check righting reflex and recovery time as part of the assessment of NSS which was evaluated 1 h after TBI (see below)."}, "[7]": {"conditions": "baseline before 30 min-long treatment"}}, "data": [{"smiles": "O=C(O)CCC(=O)C(=O)O", "note": "[2-ketoglutarate]", "values": [{"measurement": "affinity of E. coli GOT for the substance", "setting": "[1]", "result": "about 0.2 mM"}]}, {"smiles": "N[C@@H](CCC(=O)O)C(=O)O", "note": "[Glu, L-glutamic acid]", "values": [{"measurement": "amounts of Glu reaching the recovery probe", "setting": "[2]; 1M Glu perfused, intravenous Glu at t=100 min for 30 min, 30 μmoles/min/100 g", "result": "significantly more Glu reaches the recovery probe"}, {"measurement": "affinity of E. coli GOT for the substance", "setting": "[1]", "result": "about 8 mM"}, {"measurement": "recovery from TBI (NSS at 24 h and 48 h)", "setting": "[3]; intravenous 30 min, 30 μmoles/min/100 g (each), after TBI", "result": "recovered the least"}, {"measurement": "spontaneous partial recovery of rats submitted to TBI", "setting": "[3]", "result": "prevented"}]}, {"smiles": "O=C(O)CC(=O)C(=O)O", "note": "[OxAc, oxaloacetate]", "values": [{"measurement": "further reduction of the amounts of Glu reaching the recovery probe", "setting": "[2]; 1M Glu perfused, intravenous OxAc at t=110 min for 30 min, 30 μmoles/min/100 g", "result": "up to 50 % of the peak value"}, {"measurement": "blood Glu levels after TBI", "setting": "blood Glu levels [4]; intravenous OxAc 30 μmoles/min/100 g, 60-90 min after TBI, relative to basal Glu before TBI", "result": 40, "unit": "%"}, {"measurement": "duration of decrease of blood Glu after TBI", "setting": "blood Glu levels [4]; stress- and OxAc-induced decreases", "result": "at least 90 min"}, {"measurement": "blood Na content, post-treatment", "setting": "[5]; after 30 min-long treatment", "result": "164±3.4", "unit": "meq/l"}, {"measurement": "blood osmolality, post-treatment", "setting": "[5]; after 30 min-long treatment", "result": "338±8", "unit": "mOsm"}, {"measurement": "blood Na content, pre-treatment", "setting": "[5]; [7]", "result": "139±1", "unit": "meq/l"}, {"measurement": "blood osmolality, pre-treatment", "setting": "[5]; [7]", "result": "301±5", "unit": "mOsm"}]}, {"smiles": "C[C@]12CCC(=O)C=C1CC[C@@H]1[C@@H]2[C@@H](O)C[C@@]2(C)[C@H]1CC[C@]2(O)C(=O)CO", "note": "[cortisol]", "values": [{"measurement": "effect on blood Glu levels", "setting": "blood Glu levels [6]", "result": "neither cortisol nor noradrenaline affected blood Glu levels"}]}, {"smiles": "COCCc1ccc(OCC(O)CNC(C)C)cc1", "note": "(stereo not drawn) [metaprolol]", "values": [{"measurement": "effect on the reduction of blood Glu levels", "setting": "blood Glu levels [6]; metaprolol 15 mg/kg, naive rats", "result": "strong effect"}, {"measurement": "reduction of in vivo rat blood glutamate", "setting": "blood Glu levels [6]; metaprolol 15 mg/kg, naive rats, followed to 120 min", "result": 40, "unit": "%"}]}, {"smiles": "NC[C@H](O)c1ccc(O)c(O)c1", "note": "[noradrenaline]", "values": [{"measurement": "effect on blood Glu levels", "setting": "blood Glu levels [6]", "result": "neither cortisol nor noradrenaline affected blood Glu levels"}]}, {"smiles": "CNC[C@H](O)c1cccc(O)c1", "note": "[phenylephrine]", "values": [{"measurement": "reduction of blood basal glutamate levels", "setting": "blood Glu levels [6]; injected intravenously at 0.1 mg/100 gr rat body-weight/30 min", "result": 40, "unit": "%"}]}, {"smiles": "CC(C)NCC(O)COc1cccc2ccccc12", "note": "(stereo not drawn) [propranolol]", "values": [{"measurement": "effect on Glu dual-probe microdialysis profile", "setting": "[2]; propranolol pretreatment, data not shown", "result": "did not affect"}, {"measurement": "spontaneous NSS improvement at 24 h", "setting": "[3]; propranolol 10 mg/kg i.p. 1 hour before TBI", "result": "prevented the spontaneous NSS improvement"}, {"measurement": "NSS improvement", "setting": "[3]; propranolol administration delayed by 60 min after TBI", "result": "caused the same NSS improvement as that found after saline treatment"}, {"measurement": "spontaneous partial recovery of rats submitted to TBI", "setting": "[3]", "result": "prevented"}, {"measurement": "stress-induced changes of blood Glu levels", "setting": "blood Glu levels [4]; propranolol 10 mg/kg i.p. 60 min before TBI", "result": "prevented for at least 150 min the stress-induced changes of blood Glu and glucose levels"}, {"measurement": "effect on blood glutamate levels", "setting": "blood Glu levels [4]; propranolol, rats submitted to TBI (FIGS. 3A-C)", "result": "practically no effect"}, {"measurement": "stress-induced changes of blood glucose levels", "setting": "blood glucose levels", "result": "prevented for at least 150 min the stress-induced changes of blood Glu and glucose levels"}]}]}
